# Assay results taken from PubChem BioAssay AID1963843 (Molecular Pharmacology Branch, DTP, NCI, 2024).
# Test system: 616215-338-R-J1-PDC complex spheroid viability
# Experiment: Anticancer human tumor 616215-338-R-J1-PDC patient-derived colon adenocarcinoma cell line growth inhibition [POLQ]
# Conditions: for IC50: curve of first compound; for viability, T/C: stronger effect = lower value
# In short: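 Complex spheroid viability model combining PDC tumour cells with endothelial (HUVEC) and MSC stromal cells. Novobiocin, ART-558 or RP6685 were tested singly and in combination with standard and investigational anticancer drugs. Each was titrated in half-log steps from near clinical Cmax, or from 10 microM where Cmax was unknown.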
# [1] = second compound 0.0316 µM, first compound 0.0316 µM
# [2] = second compound 0.0316 µM, first compound 0.1 µM
# [3] = second compound 0.0316 µM, first compound 0.316 µM
# [4] = second compound 0.0316 µM, first compound 1 µM
# [5] = second compound 0.0316 µM, first compound 3.16 µM
# [6] = second compound 0.0316 µM, first compound 10 µM
# [7] = second compound 0.1 µM, first compound 0.0316 µM
# [8] = second compound 0.1 µM, first compound 0.1 µM
# [9] = second compound 0.1 µM, first compound 0.316 µM
# [10] = second compound 0.1 µM, first compound 1 µM
# [11] = second compound 0.1 µM, first compound 3.16 µM
# [12] = second compound 0.1 µM, first compound 10 µM
# [13] = second compound 0.316 µM, first compound 0.0316 µM
# [14] = second compound 0.316 µM, first compound 0.1 µM
# [15] = second compound 0.316 µM, first compound 0.316 µM
# [16] = second compound 0.316 µM, first compound 1 µM
# [17] = second compound 0.316 µM, first compound 3.16 µM
# [18] = second compound 0.316 µM, first compound 10 µM
# [19] = second compound 1 µM, first compound 0.0316 µM
# [20] = second compound 1 µM, first compound 0.1 µM
# [21] = second compound 1 µM, first compound 0.316 µM
# [22] = second compound 1 µM, first compound 1 µM
# [23] = second compound 1 µM, first compound 3.16 µM
# [24] = second compound 1 µM, first compound 10 µM
# [25] = second compound 3.16 µM, first compound 0.0316 µM
# [26] = second compound 3.16 µM, first compound 0.1 µM
# [27] = second compound 3.16 µM, first compound 0.316 µM
# [28] = second compound 3.16 µM, first compound 1 µM
# [29] = second compound 3.16 µM, first compound 3.16 µM
# [30] = second compound 3.16 µM, first compound 10 µM
# [31] = second compound 10 µM, first compound 0.0316 µM
# [32] = second compound 10 µM, first compound 0.1 µM
# [33] = second compound 10 µM, first compound 0.316 µM
# [34] = second compound 10 µM, first compound 1 µM
# [35] = second compound 10 µM, first compound 3.16 µM
# [36] = second compound 10 µM, first compound 10 µM
# 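Also: spheroids exposed to compounds for one week before readout.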
# 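For viability, T/C in this document: percent viability relative to DMSO vehicle wells taken as 100%.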
smiles,measurement,setting,value
COc1cc(C2c3cc4c(cc3C(OC3OC5COC(C)OC5C(O)C3O)C3COC(=O)C23)OCO4)cc(OC)c1O (stereo unspecified) + Cc1cccc(N(C)C(=O)C2C(O)CCN2c2nc(C)cc(C(F)(F)F)c2C#N)c1,IC50,second compound 0.0316 µM,> 10 µM
same,IC50,second compound 0.1 µM,> 10 µM
same,IC50,second compound 0.316 µM,9.66 µM
same,IC50,second compound 1 µM,9.43 µM
same,IC50,second compound 3.16 µM,> 10 µM
same,IC50,second compound 10 µM,9.51 µM
same,"viability, T/C",[1],95.8%
same,"viability, T/C",[2],102%
same,"viability, T/C",[3],85.3%
same,"viability, T/C",[4],94%
same,"viability, T/C",[5],70.9%
same,"viability, T/C",[6],61.5%
same,"viability, T/C",[7],94.8%
same,"viability, T/C",[8],95.5%
same,"viability, T/C",[9],94.1%
same,"viability, T/C",[10],77.9%
same,"viability, T/C",[11],80.6%
same,"viability, T/C",[12],50.8%
same,"viability, T/C",[13],95.4%
same,"viability, T/C",[14],101%
same,"viability, T/C",[15],88.6%
same,"viability, T/C",[16],85.1%
same,"viability, T/C",[17],73.4%
same,"viability, T/C",[18],48.8%
same,"viability, T/C",[19],94.4%
same,"viability, T/C",[20],96.5%
same,"viability, T/C",[21],85.4%
same,"viability, T/C",[22],81.4%
same,"viability, T/C",[23],76.7%
same,"viability, T/C",[24],47.2%
same,"viability, T/C",[25],105%
same,"viability, T/C",[26],106%
same,"viability, T/C",[27],80.5%
same,"viability, T/C",[28],81.7%
same,"viability, T/C",[29],78%
same,"viability, T/C",[30],48.9%
same,"viability, T/C",[31],107%
same,"viability, T/C",[32],102%
same,"viability, T/C",[33],68.4%
same,"viability, T/C",[34],93.3%
same,"viability, T/C",[35],67.4%
same,"viability, T/C",[36],44.7%
COc1cccc2c1C(=O)c1c(O)c3c(c(O)c1C2=O)CC(O)(C(=O)CO)CC3OC1CC(N)C(O)C(C)O1 (stereo unspecified) + Cc1cccc(N(C)C(=O)C2C(O)CCN2c2nc(C)cc(C(F)(F)F)c2C#N)c1,IC50,second compound 0.0316 µM,1.07 µM
same,IC50,second compound 0.1 µM,1 µM
same,IC50,second compound 0.316 µM,0.785 µM
same,IC50,second compound 1 µM,0.688 µM
same,IC50,second compound 3.16 µM,0.665 µM
same,IC50,second compound 10 µM,0.823 µM
same,"viability, T/C",[1],95.8%
same,"viability, T/C",[2],92.5%
same,"viability, T/C",[3],79.8%
same,"viability, T/C",[4],55.9%
same,"viability, T/C",[5],6.78%
same,"viability, T/C",[6],0.53%
same,"viability, T/C",[7],109%
same,"viability, T/C",[8],92.1%
same,"viability, T/C",[9],80%
same,"viability, T/C",[10],57.5%
same,"viability, T/C",[11],6.89%
same,"viability, T/C",[12],0.26%
same,"viability, T/C",[13],106%
same,"viability, T/C",[14],83.4%
same,"viability, T/C",[15],69.2%
same,"viability, T/C",[16],56.7%
same,"viability, T/C",[17],3.48%
same,"viability, T/C",[18],0.22%
same,"viability, T/C",[19],111%
same,"viability, T/C",[20],85.8%
same,"viability, T/C",[21],71.2%
same,"viability, T/C",[22],48.3%
same,"viability, T/C",[23],3.44%
same,"viability, T/C",[24],0.22%
same,"viability, T/C",[25],96.6%
same,"viability, T/C",[26],79.9%
same,"viability, T/C",[27],65.5%
same,"viability, T/C",[28],48.9%
same,"viability, T/C",[29],1.58%
same,"viability, T/C",[30],0.25%
same,"viability, T/C",[31],83.2%
same,"viability, T/C",[32],82.6%
same,"viability, T/C",[33],76.7%
same,"viability, T/C",[34],44.7%
same,"viability, T/C",[35],0.88%
same,"viability, T/C",[36],0.31%
O=c1[nH]cc(F)c(=O)[nH]1 + Cc1cccc(N(C)C(=O)C2C(O)CCN2c2nc(C)cc(C(F)(F)F)c2C#N)c1,IC50,second compound 0.0316 µM,> 10 µM
same,IC50,second compound 0.1 µM,> 10 µM
same,IC50,second compound 0.316 µM,> 10 µM
same,IC50,second compound 1 µM,> 10 µM
same,IC50,second compound 3.16 µM,> 10 µM
same,IC50,second compound 10 µM,> 10 µM
same,"viability, T/C",[1],92.1%
same,"viability, T/C",[2],108%
same,"viability, T/C",[3],69.8%
same,"viability, T/C",[4],68.6%
same,"viability, T/C",[5],61.2%
same,"viability, T/C",[6],56.3%
same,"viability, T/C",[7],101%
same,"viability, T/C",[8],108%
same,"viability, T/C",[9],68.7%
same,"viability, T/C",[10],61.7%
same,"viability, T/C",[11],60.1%
same,"viability, T/C",[12],63.4%
same,"viability, T/C",[13],102%
same,"viability, T/C",[14],116%
same,"viability, T/C",[15],75.6%
same,"viability, T/C",[16],57.5%
same,"viability, T/C",[17],56.9%
same,"viability, T/C",[18],66.8%
same,"viability, T/C",[19],106%
same,"viability, T/C",[20],99.7%
same,"viability, T/C",[21],68.6%
same,"viability, T/C",[22],65.1%
same,"viability, T/C",[23],56.2%
same,"viability, T/C",[24],58.2%
same,"viability, T/C",[25],99.9%
same,"viability, T/C",[26],102%
same,"viability, T/C",[27],70%
same,"viability, T/C",[28],63.6%
same,"viability, T/C",[29],59.9%
same,"viability, T/C",[30],64.2%
same,"viability, T/C",[31],97.6%
same,"viability, T/C",[32],106%
same,"viability, T/C",[33],70.3%
same,"viability, T/C",[34],54.9%
same,"viability, T/C",[35],54.5%
same,"viability, T/C",[36],59.6%
